Assay results reported in ChEMBL document CHEMBL1201862, “PubChem BioAssay data set” (2004).
The source made the active and inactive calls.

Experiments:
[1] = molecular target: Voltage-dependent T-type calcium channel subunit alpha-1H (Homo sapiens, UniProt O95180); format: functional;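 note: channel activity triggered by adding a high calcium stimulation buffer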
[2] = A cytotoxicity screen of small molecule inhibitors of the PhoP region in Salmonella typhi identified in the primary screen. [Related pubchem assays: 1850, 1864, 1985 ]; format: functional
[3] = molecular target: T1, Trace amine-associated receptor 1 (Homo sapiens, UniProt Q96RJ0); test: Fluorescence-based cell-based high throughput dose response assay to identify agonists of the human trace amine associated receptor 1 (TAAR1).; format: functional
T1 sequence (Q96RJ0 whole entry): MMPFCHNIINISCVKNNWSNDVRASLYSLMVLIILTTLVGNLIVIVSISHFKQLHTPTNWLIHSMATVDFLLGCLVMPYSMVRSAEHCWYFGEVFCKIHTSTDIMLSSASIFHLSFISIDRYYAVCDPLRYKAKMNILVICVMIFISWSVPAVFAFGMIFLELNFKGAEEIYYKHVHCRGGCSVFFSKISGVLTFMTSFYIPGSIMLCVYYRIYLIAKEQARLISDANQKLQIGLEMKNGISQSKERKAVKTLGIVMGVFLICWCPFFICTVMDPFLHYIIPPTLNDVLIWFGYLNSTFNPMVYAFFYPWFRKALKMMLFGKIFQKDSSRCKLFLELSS

[4] = molecular target: T1, Trace amine-associated receptor 1; test: Counterscreen for agonists of the human trace amine associated receptor 1 (hTAAR1): Fluorescence-based cell-based high throughput dose response assay to identify hTAAR1 agonist that also desensitize TAAR1 receptor response.; format: functional
cells [5] = format: functional, cell-based
cells [6] = format: functional, cell-based; remark: listed apart in the source
Estrogen receptor beta [7] = molecular target: T2, Estrogen receptor beta (Homo sapiens, UniProt Q92731); test: blockers of SRC-3 recruitment to ERβ – biochemical, ELISA, streptavidin-HRP readout, orthogonal assay, confirmation (AID 1060)
T2 sequence (Q92731 whole entry): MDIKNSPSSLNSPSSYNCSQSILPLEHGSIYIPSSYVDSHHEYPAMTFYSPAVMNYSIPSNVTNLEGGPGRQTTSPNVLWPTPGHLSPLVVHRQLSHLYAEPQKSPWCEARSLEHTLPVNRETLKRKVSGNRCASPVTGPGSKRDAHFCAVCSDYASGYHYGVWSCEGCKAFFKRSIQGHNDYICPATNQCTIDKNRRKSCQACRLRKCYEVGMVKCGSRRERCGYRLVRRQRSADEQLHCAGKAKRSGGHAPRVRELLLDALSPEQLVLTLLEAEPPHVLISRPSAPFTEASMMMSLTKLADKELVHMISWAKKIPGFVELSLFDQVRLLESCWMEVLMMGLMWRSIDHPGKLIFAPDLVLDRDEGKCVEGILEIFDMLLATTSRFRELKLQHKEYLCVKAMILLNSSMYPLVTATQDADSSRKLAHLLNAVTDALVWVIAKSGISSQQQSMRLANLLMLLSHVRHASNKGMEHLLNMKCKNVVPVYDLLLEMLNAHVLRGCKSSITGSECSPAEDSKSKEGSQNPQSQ

[8] = viability of HCT116 lacking mutant beta-catenin – cell-based, human colon tumor, dose response (AID 1045); format: functional;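 note: HCT116 colon tumor cells with beta catenin knocked out; cells exposed to compound for 60 hours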
[9] = viability of PTEN-deleted HCT116 cells – cell-based, HCT116 PTEN knockout, dose response (AID 1047); format: functional;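 note: HCT116 colon tumor cells with PTEN knocked out; cells exposed to compound for 60 hours before readout; potency for loss of cell viability measured by luminescence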
Estrogen receptor beta [10] = molecular target: T2, Estrogen receptor beta
Estrogen receptor = molecular target: T3, Estrogen receptor (Homo sapiens, UniProt P03372);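 note: potency for inhibiting coactivator peptide recruitment to the receptor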
T3 sequence (P03372 whole entry): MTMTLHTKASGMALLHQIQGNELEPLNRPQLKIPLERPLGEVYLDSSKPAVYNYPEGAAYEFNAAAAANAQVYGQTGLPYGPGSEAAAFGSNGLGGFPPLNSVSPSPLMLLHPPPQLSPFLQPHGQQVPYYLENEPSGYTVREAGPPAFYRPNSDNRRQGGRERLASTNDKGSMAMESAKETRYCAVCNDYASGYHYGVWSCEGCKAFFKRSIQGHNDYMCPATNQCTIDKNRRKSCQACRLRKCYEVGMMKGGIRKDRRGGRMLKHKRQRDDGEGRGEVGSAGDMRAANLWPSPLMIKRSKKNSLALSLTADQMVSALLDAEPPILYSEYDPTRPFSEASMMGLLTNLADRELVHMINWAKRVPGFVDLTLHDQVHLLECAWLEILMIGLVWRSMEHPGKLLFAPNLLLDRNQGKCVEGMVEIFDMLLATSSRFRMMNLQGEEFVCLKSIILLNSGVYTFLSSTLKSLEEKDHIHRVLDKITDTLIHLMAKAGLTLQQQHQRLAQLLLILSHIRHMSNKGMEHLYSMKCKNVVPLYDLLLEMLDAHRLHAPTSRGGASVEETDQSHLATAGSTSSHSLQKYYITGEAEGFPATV

[11] = molecular target: Induced myeloid leukemia cell differentiation protein Mcl-1 (Homo sapiens, UniProt Q07820); format: functional
Induced myeloid leukemia cell differentiation protein Mcl-1, sequence (Q07820 whole entry): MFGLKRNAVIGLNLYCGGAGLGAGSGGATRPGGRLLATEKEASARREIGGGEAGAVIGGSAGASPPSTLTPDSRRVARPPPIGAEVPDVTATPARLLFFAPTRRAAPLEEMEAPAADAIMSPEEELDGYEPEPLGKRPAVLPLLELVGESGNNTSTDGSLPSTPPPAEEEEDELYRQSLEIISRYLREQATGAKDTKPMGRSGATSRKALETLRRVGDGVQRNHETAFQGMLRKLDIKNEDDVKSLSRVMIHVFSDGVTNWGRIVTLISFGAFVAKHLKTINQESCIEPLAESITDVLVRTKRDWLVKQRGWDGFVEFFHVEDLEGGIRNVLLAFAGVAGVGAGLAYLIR

[12] = HEK-293T cell viability reduction – luminescence, B-cell screen hits, cytotoxicity control for BCR NF-kB inhibitor project, dose response (AID 489021); format: functional, cell-based;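 note: HEK-293T cells carrying an NF-kB luciferase reporter; cells exposed to compound for about 14 hours before viability readout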
[13] = molecular target: Eukaryotic translation initiation factor 4E (Mus musculus, UniProt P63073); test: blockers of eIF4G binding by eIF4E – biochemical, TR-FRET, dose response (AID 855); format: functional;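 note: potency for disrupting eIF4E binding to eIF4GI seen as loss of FRET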
Eukaryotic translation initiation factor 4E, sequence (P63073 whole entry): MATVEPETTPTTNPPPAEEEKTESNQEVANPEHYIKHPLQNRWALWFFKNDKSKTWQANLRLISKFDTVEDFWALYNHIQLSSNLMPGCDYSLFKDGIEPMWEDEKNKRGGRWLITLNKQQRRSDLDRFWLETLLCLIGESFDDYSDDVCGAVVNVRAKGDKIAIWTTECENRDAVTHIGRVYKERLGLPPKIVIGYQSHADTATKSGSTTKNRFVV

[14] = molecular target: T4, Mannose-6-phosphate isomerase (Homo sapiens, UniProt P34949); test: MPI inhibition at elevated mannose 6-phosphate – biochemical, fluorescence intensity, high mannose 6-phosphate, primary screen (AID 1220)
T4 sequence (P34949 whole entry): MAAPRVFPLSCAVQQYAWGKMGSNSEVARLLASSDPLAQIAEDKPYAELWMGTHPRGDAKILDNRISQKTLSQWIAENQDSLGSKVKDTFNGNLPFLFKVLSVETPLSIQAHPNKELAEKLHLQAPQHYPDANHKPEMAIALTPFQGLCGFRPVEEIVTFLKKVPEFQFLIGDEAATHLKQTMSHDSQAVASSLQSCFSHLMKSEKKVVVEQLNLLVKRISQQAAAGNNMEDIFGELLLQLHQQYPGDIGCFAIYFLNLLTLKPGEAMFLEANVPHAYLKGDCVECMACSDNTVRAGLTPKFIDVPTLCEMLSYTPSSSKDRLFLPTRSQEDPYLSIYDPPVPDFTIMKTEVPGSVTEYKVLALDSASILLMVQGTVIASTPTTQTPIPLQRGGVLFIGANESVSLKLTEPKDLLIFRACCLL

Aminopeptidase N = molecular target: T5, Aminopeptidase N (Plasmodium falciparum FcB1/Columbia, UniProt O96935); test: malaria alanyl aminopeptidase activity blockers – biochemical, fluorogenic H-Leu-NHMec substrate, 1536-well (AID 1445); parameters: species or system Plasmodium falciparum 3D7, 3D7
T5 sequence (O96935 whole entry): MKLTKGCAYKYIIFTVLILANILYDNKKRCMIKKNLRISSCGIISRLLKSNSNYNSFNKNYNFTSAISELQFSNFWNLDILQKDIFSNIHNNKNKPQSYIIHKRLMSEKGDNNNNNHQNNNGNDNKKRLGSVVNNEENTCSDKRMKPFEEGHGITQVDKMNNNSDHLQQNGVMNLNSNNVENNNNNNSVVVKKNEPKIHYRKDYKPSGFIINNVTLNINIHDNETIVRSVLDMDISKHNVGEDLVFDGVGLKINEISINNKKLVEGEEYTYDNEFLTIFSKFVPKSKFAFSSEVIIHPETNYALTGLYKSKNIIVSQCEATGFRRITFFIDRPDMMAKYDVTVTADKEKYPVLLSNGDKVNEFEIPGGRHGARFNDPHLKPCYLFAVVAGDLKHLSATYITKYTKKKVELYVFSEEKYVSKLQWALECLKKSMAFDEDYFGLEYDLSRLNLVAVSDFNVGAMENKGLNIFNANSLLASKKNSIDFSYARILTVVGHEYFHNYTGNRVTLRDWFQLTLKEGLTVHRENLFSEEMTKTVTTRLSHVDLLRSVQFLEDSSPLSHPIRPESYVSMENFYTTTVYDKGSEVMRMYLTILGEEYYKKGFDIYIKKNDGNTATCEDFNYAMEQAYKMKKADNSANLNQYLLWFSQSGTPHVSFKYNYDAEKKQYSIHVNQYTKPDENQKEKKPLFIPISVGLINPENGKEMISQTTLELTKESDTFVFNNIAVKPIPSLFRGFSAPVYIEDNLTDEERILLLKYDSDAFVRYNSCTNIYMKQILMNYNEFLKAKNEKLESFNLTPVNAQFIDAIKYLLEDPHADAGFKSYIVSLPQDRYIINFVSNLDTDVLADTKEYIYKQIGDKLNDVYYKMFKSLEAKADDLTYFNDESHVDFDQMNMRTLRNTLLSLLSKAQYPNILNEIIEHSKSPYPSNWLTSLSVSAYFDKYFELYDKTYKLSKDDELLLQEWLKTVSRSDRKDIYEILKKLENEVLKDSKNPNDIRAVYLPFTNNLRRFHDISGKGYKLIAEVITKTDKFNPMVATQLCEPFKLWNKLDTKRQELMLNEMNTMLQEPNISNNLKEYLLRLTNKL

[15] = molecular target: ATP-dependent molecular chaperone HSP82 (Candida albicans (strain WO-1) (Yeast), UniProt C4YTQ8); test: steroid-induced GRE reporter decrease in yeast – S. cerevisiae, luminescence, Hsp90 inhibitor project, dose response (AID 2400); format: functional, cell-based;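 note: beta-galactosidase luminescence from glucocorticoid response element reporter as proxy for Hsp90 function; inhibitor potency where signal loss means Hsp90 inhibition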
ATP-dependent molecular chaperone HSP82, sequence (C4YTQ8 whole entry): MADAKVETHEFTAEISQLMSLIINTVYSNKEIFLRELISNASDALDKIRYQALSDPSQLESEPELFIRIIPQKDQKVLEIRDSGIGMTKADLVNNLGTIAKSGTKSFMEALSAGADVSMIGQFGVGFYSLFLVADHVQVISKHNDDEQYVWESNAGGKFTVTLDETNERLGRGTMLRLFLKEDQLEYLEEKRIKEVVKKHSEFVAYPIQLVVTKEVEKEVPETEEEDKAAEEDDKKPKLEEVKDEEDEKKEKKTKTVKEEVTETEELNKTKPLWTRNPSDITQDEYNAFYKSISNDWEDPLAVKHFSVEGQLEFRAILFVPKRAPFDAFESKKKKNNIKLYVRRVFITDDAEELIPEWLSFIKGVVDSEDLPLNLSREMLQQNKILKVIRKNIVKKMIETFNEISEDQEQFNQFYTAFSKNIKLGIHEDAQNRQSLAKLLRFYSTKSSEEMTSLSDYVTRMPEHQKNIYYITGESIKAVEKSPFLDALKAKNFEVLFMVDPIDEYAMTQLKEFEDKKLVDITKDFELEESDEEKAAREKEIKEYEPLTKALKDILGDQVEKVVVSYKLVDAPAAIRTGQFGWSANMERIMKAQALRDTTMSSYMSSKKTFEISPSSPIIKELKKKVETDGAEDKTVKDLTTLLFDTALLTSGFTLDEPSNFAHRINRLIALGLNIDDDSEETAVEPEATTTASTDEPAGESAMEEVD

[16] = NIH-3T3 fibroblast cytotoxicity, dose response, cytotoxicity control, cell-based, fluorescence, Alamar Blue, secondary assay (AID 2327); format: functional;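 note: NIH-3T3 mouse fibroblasts cultured with fluconazole at 8 µg/mL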
[17] = molecular target: T6, Serine/threonine-protein phosphatase (Candida dubliniensis (strain CD36 / CBS 7987 / NCPF 3949 / NRRLY-17841) (Yeast), UniProt B9W6M3); test: blockers of CaCl2-induced CDRE-lacZ signaling – S. cerevisiae, luminescence, secondary, dose response (AID 2388); format: functional, cell-based;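 note: yeast reporter cells carrying a calcineurin-responsive lacZ construct stimulated with calcium chloride; luminescent beta-galactosidase reporter signal in whole cells rather than isolated phosphatase activity; potency for inhibition where a drop in reporter signal means calcineurin blockade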
T6 sequence (B9W6M3 whole entry): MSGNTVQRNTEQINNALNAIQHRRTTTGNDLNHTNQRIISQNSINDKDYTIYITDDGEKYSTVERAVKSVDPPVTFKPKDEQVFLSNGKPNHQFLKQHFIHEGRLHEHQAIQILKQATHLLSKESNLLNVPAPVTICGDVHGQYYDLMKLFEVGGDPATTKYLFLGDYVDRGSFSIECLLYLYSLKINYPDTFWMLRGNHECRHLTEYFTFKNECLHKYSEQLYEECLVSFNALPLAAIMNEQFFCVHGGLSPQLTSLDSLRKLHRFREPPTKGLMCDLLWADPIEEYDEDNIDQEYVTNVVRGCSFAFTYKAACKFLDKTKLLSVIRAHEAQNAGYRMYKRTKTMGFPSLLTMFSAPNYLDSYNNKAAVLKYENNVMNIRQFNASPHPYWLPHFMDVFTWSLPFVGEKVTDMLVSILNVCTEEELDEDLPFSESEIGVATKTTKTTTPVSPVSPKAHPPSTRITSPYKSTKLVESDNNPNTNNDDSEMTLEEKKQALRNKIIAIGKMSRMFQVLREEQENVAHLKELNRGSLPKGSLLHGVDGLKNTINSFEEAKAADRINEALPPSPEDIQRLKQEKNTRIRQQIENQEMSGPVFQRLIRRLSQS

[18] = fluconazole-exposed Candida albicans growth modulators – fluorescence, retest, confirmation (AID 2467); format: functional, cell-based
Trypsin = Trypsin (Sus scrofa, UniProt P00761); test: trypsin protease activity blockade – biochemical, quenched peptide fluorescence, cherry-pick, selectivity assay for Rce1 protease inhibitor project, dose response (AID 488789)
Trypsin, sequence (P00761 whole entry): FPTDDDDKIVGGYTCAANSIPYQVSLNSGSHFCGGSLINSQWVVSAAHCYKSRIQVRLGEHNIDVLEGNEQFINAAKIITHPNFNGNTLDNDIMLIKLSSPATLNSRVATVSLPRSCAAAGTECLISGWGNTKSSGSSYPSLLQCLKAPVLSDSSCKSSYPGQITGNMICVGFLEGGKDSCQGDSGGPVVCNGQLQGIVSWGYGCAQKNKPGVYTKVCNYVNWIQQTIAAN

[19] = molecular target: FAD-linked sulfhydryl oxidase ALR (Homo sapiens, UniProt P55789); test: ALR-catalysed DTT oxidation blockers – biochemical, H2O2 detection, luminescence, cherry-pick, dose response (AID 493248)
FAD-linked sulfhydryl oxidase ALR, sequence (P55789 whole entry): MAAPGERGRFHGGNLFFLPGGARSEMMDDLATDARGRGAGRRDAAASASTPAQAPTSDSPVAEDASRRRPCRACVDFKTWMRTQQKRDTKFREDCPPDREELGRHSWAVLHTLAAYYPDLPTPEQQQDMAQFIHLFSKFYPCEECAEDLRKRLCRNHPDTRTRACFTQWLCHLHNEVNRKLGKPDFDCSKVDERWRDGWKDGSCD

Voltage-dependent T-type calcium channel subunit alpha-1H, sequence (O95180 whole entry): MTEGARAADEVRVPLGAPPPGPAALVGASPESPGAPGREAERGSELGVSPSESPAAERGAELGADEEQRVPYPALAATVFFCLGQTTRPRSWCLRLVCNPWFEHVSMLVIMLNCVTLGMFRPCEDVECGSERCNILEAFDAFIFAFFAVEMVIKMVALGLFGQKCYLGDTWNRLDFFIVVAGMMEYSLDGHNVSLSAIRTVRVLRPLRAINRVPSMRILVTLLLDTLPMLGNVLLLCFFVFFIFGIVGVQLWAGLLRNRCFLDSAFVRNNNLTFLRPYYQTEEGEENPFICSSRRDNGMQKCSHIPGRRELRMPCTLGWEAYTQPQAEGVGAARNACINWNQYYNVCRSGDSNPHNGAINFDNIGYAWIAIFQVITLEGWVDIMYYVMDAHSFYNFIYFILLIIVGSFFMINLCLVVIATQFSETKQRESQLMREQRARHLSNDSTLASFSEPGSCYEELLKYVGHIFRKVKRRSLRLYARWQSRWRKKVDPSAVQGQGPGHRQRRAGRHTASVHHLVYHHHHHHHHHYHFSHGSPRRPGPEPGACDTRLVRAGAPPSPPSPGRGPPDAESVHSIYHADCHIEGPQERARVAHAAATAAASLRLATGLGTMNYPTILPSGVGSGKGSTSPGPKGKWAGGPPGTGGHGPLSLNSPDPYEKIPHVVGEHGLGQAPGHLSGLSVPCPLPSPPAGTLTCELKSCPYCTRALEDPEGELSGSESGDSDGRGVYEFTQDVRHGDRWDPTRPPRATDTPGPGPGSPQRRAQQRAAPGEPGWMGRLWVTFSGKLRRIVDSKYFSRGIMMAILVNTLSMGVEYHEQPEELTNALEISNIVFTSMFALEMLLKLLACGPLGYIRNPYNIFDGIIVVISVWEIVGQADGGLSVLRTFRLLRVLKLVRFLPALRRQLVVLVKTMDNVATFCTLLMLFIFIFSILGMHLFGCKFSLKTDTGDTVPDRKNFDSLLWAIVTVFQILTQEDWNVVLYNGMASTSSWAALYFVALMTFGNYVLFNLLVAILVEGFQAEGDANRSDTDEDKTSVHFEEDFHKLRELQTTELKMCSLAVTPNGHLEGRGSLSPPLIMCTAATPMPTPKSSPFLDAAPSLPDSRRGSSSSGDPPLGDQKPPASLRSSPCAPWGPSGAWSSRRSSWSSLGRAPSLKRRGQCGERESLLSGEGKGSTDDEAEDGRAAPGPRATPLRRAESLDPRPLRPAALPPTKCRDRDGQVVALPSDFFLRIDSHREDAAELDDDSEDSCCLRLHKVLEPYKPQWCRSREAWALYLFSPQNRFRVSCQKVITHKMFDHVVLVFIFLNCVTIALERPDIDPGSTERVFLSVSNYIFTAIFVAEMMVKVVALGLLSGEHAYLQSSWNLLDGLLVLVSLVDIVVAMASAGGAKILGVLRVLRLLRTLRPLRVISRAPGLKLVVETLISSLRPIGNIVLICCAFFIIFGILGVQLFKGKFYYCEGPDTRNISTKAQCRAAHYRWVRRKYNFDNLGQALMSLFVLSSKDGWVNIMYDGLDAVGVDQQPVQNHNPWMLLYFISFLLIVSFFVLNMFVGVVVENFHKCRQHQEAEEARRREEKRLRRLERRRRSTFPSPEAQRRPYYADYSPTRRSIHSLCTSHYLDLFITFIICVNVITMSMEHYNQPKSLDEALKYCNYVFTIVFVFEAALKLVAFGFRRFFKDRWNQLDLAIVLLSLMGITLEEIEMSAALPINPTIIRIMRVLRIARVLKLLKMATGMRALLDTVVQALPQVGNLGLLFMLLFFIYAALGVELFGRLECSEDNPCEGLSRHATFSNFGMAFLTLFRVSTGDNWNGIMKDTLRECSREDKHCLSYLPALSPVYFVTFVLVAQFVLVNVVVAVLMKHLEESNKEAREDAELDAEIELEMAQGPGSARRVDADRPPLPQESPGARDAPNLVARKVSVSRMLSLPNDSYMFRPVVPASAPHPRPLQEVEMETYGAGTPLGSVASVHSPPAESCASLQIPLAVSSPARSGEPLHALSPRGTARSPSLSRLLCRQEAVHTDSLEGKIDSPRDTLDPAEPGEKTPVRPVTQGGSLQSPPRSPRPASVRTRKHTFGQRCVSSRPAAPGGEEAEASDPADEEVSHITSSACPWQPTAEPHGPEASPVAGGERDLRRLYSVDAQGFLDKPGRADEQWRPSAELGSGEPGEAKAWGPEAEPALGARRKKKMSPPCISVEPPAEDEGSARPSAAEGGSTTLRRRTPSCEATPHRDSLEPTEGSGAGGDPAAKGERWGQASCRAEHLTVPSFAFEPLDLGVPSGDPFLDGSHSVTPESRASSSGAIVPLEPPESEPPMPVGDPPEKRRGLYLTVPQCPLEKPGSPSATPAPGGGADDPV

Question: With `Cc1cccc(N2CCN(C(=O)CCCOc3ccccc3)CC2)c1C` as the molecule, how does the EC50 [1] read?
Answer: 5.65 µM (active)

Question: For `CC(C)CCNC(=O)c1cc2c(s1)-c1ccccc1S(=O)(=O)C2`, which EC50 [2] is on record?
Answer: > 50 µM (active)

Question: What does the source list for `CN1CCN(c2ccc(NC(=O)c3cccc(OCc4ccccc4)c3)cc2)CC1`?
Answer: EC50 [3]: 9.36 µM (active); IC50 [4]: 9.06 µM (active); IC50 (cells [5]): > 29.9 µM (inactive); EC50 (cells [6]): > 29.9 µM (inactive); IC50 (Estrogen receptor beta [7]): 0.0793 µM (not active)

Question: With `CCN1CCCC1Cn1cnc2c3cc(Cl)ccc3nc-2c1O` (centres undefined) as the molecule, how does the EC50 [2] read?
Answer: > 50 µM (active)

Question: Which results are given for `CCOc1cccc2cc(-c3cn4cc(C)ccc4n3)c(=O)oc12`?
Answer: EC50 [8]: 2.46 µM (active); EC50 [9]: 1.33 µM (active); IC50 (Estrogen receptor beta [10]): > 50 µM (not active); IC50 (Estrogen receptor): 3.82 µM (active); IC50 (Estrogen receptor beta [7]): > 50 µM (not active)

Question: For `Cc1cnc(Nc2nc3ccccc3o2)nc1C(=O)Nc1cccc(C(F)(F)F)c1`, which EC50 [1] is on record?
Answer: 5.15 µM (active)

Question: For `Cc1ccc(-c2nnc(CSc3nnc(COc4ccccc4)n3-c3ccc(C)cc3)o2)cc1`, which EC50 [1] is on record?
Answer: 4.75 µM (active)

Question: Which IC50 [11] does the source give for `CCc1cc(C(=O)N=Nc2c(O)[nH]c3ccc([N+](=O)[O-])cc23)c2ccccc2n1` here?
Answer: 6.88 µM (active)

Question: With `O=C(CN1C(=O)c2ccccc2S1(=O)=O)c1ccc(OC(F)F)cc1` as the molecule, how does the IC50 [12] read?
Answer: > 80 µM (inactive)

Question: With `OCCN1CCN(C(c2cccs2)c2ccc3cccnc3c2O)CC1` (centres undefined) as the molecule, how does the IC50 [13] read?
Answer: > 64 µM (inactive)

Question: What about the IC50 [14] of the same molecule?
Answer: > 50 µM (not active)

Question: And the IC50 (Estrogen receptor beta [7])?
Answer: 2.82 µM (active)

Question: Which EC50 [2] does the source give for `CC(C)OC(=O)c1cccc(C(=O)Oc2ccc(Br)cc2)n1` here?
Answer: > 50 µM (active)

Question: Which IC50 (Aminopeptidase N) does the source give for `O=C(Cc1ccc(S(=O)(=O)N2CCOCC2)s1)NCCC(c1ccccc1)c1ccccc1` here?
Answer: 2.76 µM (active)

Question: Which EC50 [15] does the source give for `O=C(O)c1ccccc1-c1ccccc1C(=O)Nc1cccc(-c2nc3ccccc3o2)c1` here?
Answer: > 150 µM (inactive)

Question: What about the EC50 [16] of the same molecule?
Answer: > 160 µM (inactive)

Question: What about the EC50 [17] of the same molecule?
Answer: > 180 µM (inactive)

Question: And the IC50 (Aminopeptidase N)?
Answer: 16.4 µM (active)

Question: And the EC50 [18]?
Answer: 2.62 µM (active)

Question: For `CCCn1c(N2CCN(CC(=O)Nc3ccc4c(c3)OCCO4)CC2)nc2ccccc21`, which EC50 [1] is on record?
Answer: 3.84 µM (active)

Question: For `CN1C(=O)c2ccccc2N(C)C1c1ccccc1Cl` (centres undefined), which AC50 (Trypsin) is on record?
Answer: 9.6 µM (active)

Question: Which IC50 (Aminopeptidase N) does the source give for `Cc1c(CCC(=O)O)c(=O)oc2cc3occ(-c4ccc(F)cc4)c3cc12` here?
Answer: 16.3 µM (active)

Question: And the AC50 [19]?
Answer: 2.68 µM (active)

Question: With `O=C(c1ccco1)N1CCCN(Cc2nc(-c3ccc4c(c3)OCO4)no2)CC1` as the molecule, how does the EC50 [2] read?
Answer: > 50 µM (active)

Question: Which IC50 [12] does the source give for `Cc1cc(OCC(=O)N2CCC(C(N)=O)CC2)c2c3c(c(=O)oc2c1)CCCC3` here?
Answer: > 80 µM (inactive)

Question: With `CCCNC(=O)c1ccc(N2CCC3(CC2)CC(c2cccc(Br)c2)=NO3)c(NC(=O)c2ccc(Cl)c([N+](=O)[O-])c2)c1` as the molecule, how does the IC50 [12] read?
Answer: > 80 µM (inactive)
